This note sets out measurements from article PMC12794062, “Repositioning a Human Kinase Platelet-Derived Growth Factor Receptor Alpha Type II Inhibitor for Malaria and Inhibition of Hemozoin Formation” (ACS Medicinal Chemistry Letters, 2025).

For one data set, the system named is β-hematin formation. The data set is described as follows: Cell-free β-hematin inhibition assay (NP-40 detergent-based). Type of data set: biochemical. The note with it: 2 independent experiments, read-out: βH IC50 ± SD.
The subject of a further data set is P. falciparum NF54. Briefly: In vitro asexual blood stage antiplasmodium activity (pLDH assay), drug sensitive NF54 strain. The note with it: mean ± SD, n ≥ 2 independent experiments.
The next data set concerns P. falciparum Dd2. The data set is described as follows: In vitro asexual blood stage antiplasmodium activity (pLDH assay), multidrug-resistant Dd2 strain. Particulars: Plasmodium falciparum, DD2, read-out: Pf IC50 ± SD Dd2, asexual blood stage; mean ± SD, n ≥ 2 independent experiments.
Another data set has as its system P. falciparum K1. The data set is described as follows: In vitro asexual blood stage antiplasmodium activity (pLDH assay), multidrug-resistant K1 strain. Particulars: mean ± SD, n ≥ 2 independent experiments.
The nature of data set [1]: Solubility, miniaturised shake flask method, HPLC-DAD. Type of data set: physicochemical. Particulars: aqueous solution, 25 °C, aqueous buffer, thermodynamic from solid; pH 6.5; footnote: thermodynamic solubility, title and text: kinetic.
A short description of data set [2]: In vitro microsomal metabolic stability, human. Type of data set: in vitro ADME. The note with it: both sexes, human liver microsomes, pH 7.4, read-out: CLint,app (h). On the technique in general: Microsomes from liver hold many membrane-bound enzymes, among them those of drug oxidation.
Data set [3] in a line: In vitro microsomal metabolic stability, mouse. Format: in vitro ADME. Particulars: male, CD1, mouse, mouse liver microsomes, pH 7.4; read-out: CLint,app (m).
A short description of data set [4]: In vitro microsomal metabolic stability, rat. Format: in vitro ADME. The note with it: male, Sprague Dawley, rat liver microsomes, pH 7.4, read-out: CLint,app (r).
Data set [5] relates to Chinese Hamster Ovarian (CHO) cells. Briefly: In vitro cytotoxicity, MTT assay. Particulars: CHO IC50/PfNF54 IC50. (In general: Tetrazolium dyes change colour on reduction, which living cells bring about.)
Data set [6] in a line: In vitro cytotoxicity, MTT assay. Particulars: Chinese hamster, Chinese Hamster Ovarian (CHO) cells.
For data set [7], the system named is heme species (free heme, hemozoin) in NF54 parasites. The data set is described as follows: Cellular heme fractionation assay. Format: cell-based, Plasmodium falciparum. The note with it: 0.5× to 3× IC50, NF54 parasites.
Where [8] appears, read: Plasmodium falciparum, NF54, read-out: Pf IC50 ± SD NF54, asexual blood stage.
The mark [9] stands for this setting: Plasmodium falciparum, K1, read-out: Pf IC50 ± SD K1, asexual blood stage.
The mark [10] stands for this setting: read-out: Pf IC50 ± SD K1, asexual blood stage.

Several values for one entry are separate records, joined by “and”; a condition that tells them apart may be missing. Equal entries are not always repeated. Where two headings read alike, the source gives them in different places.

As to `O=C(NCCc1ccc(Cl)cc1Cl)c1cncc(/C=C/c2cccnc2)c1` [Compound 10], the concentration for half-maximal inhibition (IC50) stood at 15900 ± 100 nM in the data set on β-hematin formation and 2630 ± 2270 nM in the data set on P. falciparum NF54 (setting [8]).

On to `Cc1cnc(N)c(/C=C/c2cncc(C(=O)NCCc3ccncc3)c2)c1` [Compound 24], for which the IC50 in the data set with β-hematin formation came out at 62000 ± 5000 nM; in the data set with P. falciparum NF54 (setting [8]) it was 2060 ± 690 nM.

Consider `Nc1ccc(/C=C/c2cncc(C(=O)NCCc3ccc(Cl)cc3Cl)c2)cn1` [Compound 8], for which the IC50 stood at 2210 ± 1160 nM with P. falciparum Dd2 and 510 ± 420 nM in the data set on P. falciparum NF54 (setting [8]).

For the compound `Cc1cnc(N)c(/C=C/c2cncc(C(=O)NCCc3ccccc3)c2)c1` [Compound 19], the half-maximal inhibitory concentration (IC50) in the data set on P. falciparum K1 (setting [9]) is under 1000 nM; with P. falciparum K1 (setting [10]), 580 ± 160 nM; with P. falciparum Dd2, under 1000 nM; in the data set on P. falciparum NF54 (setting [8]) it was 320 ± 60 nM.

For `Cc1cnc(N)c(/C=C/c2cncc(C(=O)NCc3cc(Cl)cc(Cl)c3)c2)c1` [Compound 21], the IC50 in the data set with P. falciparum K1 (setting [9]) is 460 ± 170 nM; in the data set with β-hematin formation, < 10000 nM and 5000 nM; in the data set on P. falciparum NF54 (setting [8]), 90 nM.

As to `Cc1cnc(N)c(/C=C/c2cccc(C(=O)NCCc3ccc(Cl)cc3Cl)c2)c1` [Compound 27], the results for the concentration for half-maximal inhibition (IC50) with P. falciparum K1 (setting [9]), in the data set on β-hematin formation and with P. falciparum NF54 (setting [8]) were 1650 ± 270 nM, 13000 ± 4000 nM and 620 ± 70 nM, respectively.

`Nc1cncc(/C=C/c2cncc(C(=O)NCCc3ccc(Cl)cc3Cl)c2)c1` [Compound 9]: the results for the IC50 in the data set on P. falciparum K1 (setting [9]) and with P. falciparum NF54 (setting [8]) were over 6000 nM and 480 ± 260 nM, respectively.

Turning to `Nc1ccncc1/C=C/c1cncc(C(=O)NCCc2ccc(Cl)cc2Cl)c1` [Compound 12], the 50% inhibitory concentration (IC50) is 920 ± 50 nM with P. falciparum Dd2 and 140 nM in the data set with P. falciparum NF54 (setting [8]).

Consider `Cc1cnc(N)c(/C=C/c2cncc(C(=O)Nc3ccc(Cl)cc3Cl)c2)c1` [Compound 22], for which the IC50 in the data set on P. falciparum Dd2 is 350 ± 50 nM; with β-hematin formation, < 10000 nM and 8000 nM; with P. falciparum NF54 (setting [8]) it was 200 ± 60 nM.

In the case of `Cc1cnc(N)c(/C=C/c2cncc(C(=O)NCCC3CCNCC3)c2)c1` [Compound 25], the figures for the IC50 in the data set on β-hematin formation and in the data set with P. falciparum NF54 (setting [8]) were 232000 ± 27000 nM and over 6000 nM, respectively.

As for `Cc1cncc(/C=C/c2cncc(C(=O)NCCc3ccc(Cl)cc3Cl)c2)c1` [Compound 6], the figures for the IC50 with β-hematin formation and in the data set with P. falciparum NF54 (setting [8]) were 26000 ± 7000 nM and 1180 ± 380 nM, respectively.

With `Nc1ncncc1/C=C/c1cncc(C(=O)NCCc2ccc(Cl)cc2Cl)c1` [Compound 13], the IC50 in the data set with P. falciparum Dd2 came out at 1400 ± 50 nM; with P. falciparum NF54 (setting [8]), 480 ± 350 nM.

For `Cc1cnc(N)c(/C=C/c2cccc(C(=O)NCCc3ccc(Cl)cc3Cl)n2)c1` [Compound 26], the IC50 stood at 3190 ± 380 nM in the data set on P. falciparum Dd2, 27000 ± 7000 nM in the data set with β-hematin formation and 780 ± 30 nM in the data set on P. falciparum NF54 (setting [8]).

With `Cc1ccc(N)c(/C=C/c2cncc(C(=O)NCCc3ccc(Cl)cc3Cl)c2)c1` [Compound 5], the IC50 was 18400 ± 200 nM with β-hematin formation and 2600 ± 1470 nM in the data set on P. falciparum NF54 (setting [8]).

`Cc1cnc(N)c(/C=C/c2cncc(C(=O)Nc3ccc(Cl)cc3)c2)c1` [Compound 23] yielded a solubility (thermodynamic) at 20 h in data set [1] of under 5 µM. Moreover, the results for the CLint scaled at 1 µM in [2], in [3] and in [4] were 64 mL/min/kg, 153 mL/min/kg and 62 mL/min/kg, respectively. In addition, the IC50 in the data set on P. falciparum Dd2 was determined as 190 nM; in the data set on P. falciparum NF54 (setting [8]), 140 ± 20 nM; in [6], 21000 nM. In addition, the “selectivity index [SI]” value in data set [5] is given as 150.

Regarding `Nc1ncccc1/C=C/c1cncc(C(=O)NCCc2ccc(Cl)cc2Cl)c1` [Compound 7], the IC50 was 960 ± 390 nM with P. falciparum K1 (setting [9]), 5470 ± 540 nM in the data set with P. falciparum Dd2, 17900 ± 200 nM in the data set on β-hematin formation and 340 ± 240 nM in the data set on P. falciparum NF54 (setting [8]).

For `Cc1cnc(N)c(/C=C/c2cncc(C(=O)NCc3ccc(Cl)cc3Cl)c2)c1` [Compound 20], the values for the IC50 in the data set on P. falciparum K1 (setting [9]), in the data set with P. falciparum Dd2 and with P. falciparum NF54 (setting [8]) were 250 ± 120 nM, 190 ± 110 nM and 160 ± 70 nM, respectively.

Consider `Cc1cnc(N)c(/C=C/c2cncc(C(=O)NCCc3ccc(Cl)cc3)c2)c1` [Compound 18], for which the IC50 with P. falciparum K1 (setting [9]) was under 1000 nM; in the data set on P. falciparum K1 (setting [10]), 720 ± 430 nM; in the data set on β-hematin formation, 15000 ± 2000 nM.

For the compound `Cc1cnc(N)c(/C=C/c2cscc2C(=O)NCCc2ccc(Cl)cc2Cl)c1` [Compound 28], the half-inhibitory concentration (IC50) with P. falciparum Dd2 came to 2360 ± 400 nM; with β-hematin formation it was 18000 ± 7000 nM; in the data set on P. falciparum NF54 (setting [8]) it was 590 ± 350 nM.

Turning to `Cc1cnc(N)c(/C=C/c2cncc(C(=O)NCCc3ccc(Cl)cc3Cl)c2)c1` [Compound 4], the IC50 in the data set on P. falciparum K1 (setting [9]) turned out to be 590 ± 40 nM; in the data set on β-hematin formation it was 13000 ± 2000 nM; in the data set on P. falciparum NF54 (setting [8]), 220 ± 30 nM. Moreover, in data set [7], the “free heme, dose response” value was “dose-dependent increase in free heme”. Further, in data set [7], the “hemozoin, dose response” value is given as “decrease in hemozoin”.

As to `O=C(NCCc1ccc(Cl)cc1Cl)c1cncc(/C=C/c2ccccc2)c1` [Compound 11], the IC50 in the data set with β-hematin formation worked out at 22000 ± 2000 nM; in the data set on P. falciparum NF54 (setting [8]), 4280 nM; with P. falciparum NF54 (read-out: Pf IC50 ± SD NF54, asexual blood stage), 4820 ± 1550 nM.

The IC50 is the concentration needed to halve the response being measured. Usually thermodynamic solubility stands for solubility found after equilibrating the solid with the medium.
